Experiments:
60 kDa chaperonin = target: T1, 60 kDa chaperonin (Escherichia coli, UniProt P0A6F5); experiment: Differential PTD-HDX-MS in 60° C.-depleted E. coli cell lysate; type: binding; conditions: 60° C.-PTD sample
T1 construct: endogenous in cells; host or cells: E. coli cell lysate
Protocol: (§1) Samples were prepared in triplicate.
(§2) The flowrate was controlled at 150 μL/min.
(§3) The decoy database was automatically generated in MSGF+ software.

[1] = target: T2, alkyl hydroperoxide reductase C (Escherichia coli, UniProt P0AE08); experiment: as above; type: binding; conditions: 60° C.-PTD sample
T2 construct: endogenous in cells; host or cells: E. coli cell lysate
Protocol: as §1, §2, §3

T2 sequence (P0AE08 2-187): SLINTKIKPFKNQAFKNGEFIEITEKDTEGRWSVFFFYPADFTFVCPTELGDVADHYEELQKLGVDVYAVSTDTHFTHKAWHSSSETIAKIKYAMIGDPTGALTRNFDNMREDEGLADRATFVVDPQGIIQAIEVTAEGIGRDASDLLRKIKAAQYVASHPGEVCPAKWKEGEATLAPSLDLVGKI
T1 sequence (P0A6F5 2-548): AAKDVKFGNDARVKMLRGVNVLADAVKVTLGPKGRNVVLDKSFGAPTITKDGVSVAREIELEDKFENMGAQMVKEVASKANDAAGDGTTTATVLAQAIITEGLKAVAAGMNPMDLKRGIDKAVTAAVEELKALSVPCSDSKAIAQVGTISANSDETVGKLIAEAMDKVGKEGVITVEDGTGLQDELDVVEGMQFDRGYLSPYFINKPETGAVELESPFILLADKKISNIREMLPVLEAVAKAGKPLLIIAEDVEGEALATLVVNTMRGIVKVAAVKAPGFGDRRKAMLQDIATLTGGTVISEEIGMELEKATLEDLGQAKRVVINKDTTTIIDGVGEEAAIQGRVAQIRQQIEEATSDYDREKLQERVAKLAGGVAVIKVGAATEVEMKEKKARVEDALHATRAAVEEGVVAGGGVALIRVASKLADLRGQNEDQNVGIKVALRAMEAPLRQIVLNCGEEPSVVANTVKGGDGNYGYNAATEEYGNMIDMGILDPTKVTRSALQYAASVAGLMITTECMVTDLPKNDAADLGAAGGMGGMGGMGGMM

Q: What does the source list for `CC(=O)Nc1nnc(S(N)(=O)=O)s1` [AZM, Acetazolamide]?
A: deuterium uptake difference of characterized peptides following AZM treatment (60 kDa chaperonin): no significant differences; deuterium uptake difference of characterized peptides following AZM treatment [1]: no significant differences
